This is an account of results in patent US7521449B2, “4-arylmorpholin-3-one derivatives, their preparation and therapeutic use thereof” (Sanofi-Aventis, priority 2004, dated 2009).

The structures appear in SMILES notation. Counter-ions that a name gives are not always drawn.

By Ki is commonly meant a dissociation constant, usually derived from enzyme kinetics or from competition with a known ligand. What is called ED50 is the dose at which the effect has come halfway, by size or by number of responders.

For test [1], the target named is T1, cloned human NK2 receptors (Homo sapiens, UniProt P21452).
T1 construct: expressed in transfected cells; host or cells: CHO cells
T1 sequence (P21452 1-398): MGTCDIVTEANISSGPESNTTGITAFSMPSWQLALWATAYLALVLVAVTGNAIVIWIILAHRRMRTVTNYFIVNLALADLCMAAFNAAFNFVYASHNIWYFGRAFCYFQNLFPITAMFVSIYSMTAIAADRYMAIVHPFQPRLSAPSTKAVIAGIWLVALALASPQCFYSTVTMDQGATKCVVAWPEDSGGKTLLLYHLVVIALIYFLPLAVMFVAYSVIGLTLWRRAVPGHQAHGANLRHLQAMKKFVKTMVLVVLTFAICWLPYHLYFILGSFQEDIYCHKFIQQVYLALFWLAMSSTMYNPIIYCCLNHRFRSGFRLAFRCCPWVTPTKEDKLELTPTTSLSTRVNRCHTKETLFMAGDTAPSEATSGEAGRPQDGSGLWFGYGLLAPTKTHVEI
Briefly: Inhibition of the binding of [125I]His-neurokinin A to cloned human NK2 receptors expressed by CHO cells. The note with it: binding of [125I]His-NKA, cloned human NK2 receptors expressed in CHO cells; read-out: inhibition constant Ki. The procedure: The affinity of the compounds for the tachykinin receptors NK2 was evaluated in vitro by measuring the inhibition of the binding of [^125I]His-neurokinin A ([^125I]His-NKA) to cloned human NK2 receptors expressed by CHO cells (Y. Takeda et al., J. Neurochem., 1992, 59, 740-745).
The trials were performed according to […]

Another test has as its target T2, NK2 receptor (Mus musculus, UniProt P30549).
T2 construct: from tissue; host or cells: mouse striatum (in vivo)
T2 sequence (P30549 1-384): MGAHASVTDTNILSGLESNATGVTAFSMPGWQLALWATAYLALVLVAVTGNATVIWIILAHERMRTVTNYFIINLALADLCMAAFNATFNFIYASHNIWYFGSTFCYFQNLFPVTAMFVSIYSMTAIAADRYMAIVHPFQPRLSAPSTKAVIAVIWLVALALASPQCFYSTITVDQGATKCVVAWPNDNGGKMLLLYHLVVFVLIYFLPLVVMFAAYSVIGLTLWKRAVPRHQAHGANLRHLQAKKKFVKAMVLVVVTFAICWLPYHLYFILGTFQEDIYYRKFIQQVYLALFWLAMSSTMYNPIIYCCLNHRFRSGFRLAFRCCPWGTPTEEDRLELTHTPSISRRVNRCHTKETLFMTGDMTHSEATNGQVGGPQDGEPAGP
Briefly: Spinning behavior caused by injection of [Nle10]NKA(4-10) into the striatum of mice, compounds administered orally. The test is classed as in vivo. How it is done: The compounds of the present invention were also evaluated in vivo in a model of pharmacodynamics.
In mice, injection into the striatum of a specific agonist of the NK2 receptor, [Nle^10]NKA(4-10), causes a spinning behavior, which is inhibited in a dose-dependent manner by the compounds according to the invention administered orally. This test was performed according to Poncelet et al. (Neurosci. Lett., 1993, 149, 40-42).

With `CC(=O)NC1(c2cccc(F)c2)CCN(CCC2(c3ccc(Cl)c(Cl)c3)CN(c3ccccc3)C(=O)CO2)CC1` (single isomer, unassigned) [Compound 3, N-[1-[2-[2-(3,4-Dichlorophenyl)-5-oxo-4-phenylmorpholin-2-yl]ethyl]-4-(3-fluorophenyl)piperid-4-yl]acetamide hydrochloride, dextrorotatory isomer], in test [1], the Ki worked out at 0.16 nM. At NK2 receptor (conclusion from the pharmacological results), the “antagonism of the NK2 receptors (blocking the pharmacological effects caused by neurokinin A)” value is recorded as “antagonists of the NK2 receptors”. For the same molecule, at NK2 receptor (mouse, po, mice, orally, spinning behavior caused by intrastriatal [Nle10]NKA(4-10), read-out: 50 effective dose (ED50)), the ED50 turned out to be 0.023 mg/kg.
